Measurements from patent US8461151B2, “Aryl-/heteroaryl-cyclohexenyl-tetraazabenzo[e]azulenes” (Hoffmann-La Roche Inc., priority 2010, dated 2013).

molecular target: T1, human V1a receptor (Homo sapiens, UniProt P37288); experiment: human V1a receptor binding studies (3H-Vasopressin SPA, membranes of transfected HEK293 cells); conditions: 3H-Vasopressin displacement, HEK293 cell membranes, SPA beads, 1 h at room temperature, Ki by Cheng-Prussoff from IC50, read-out: pKi (hV1a) (converted)
T1 construct: expressed in transfected cells; host or cells: HEK293 cells, transiently transfected; membranes
Protocol: The human V1a receptor was cloned by RT-PCR from total human liver RNA. The coding sequence was subcloned in an expression vector after sequencing to confirm the identity of the amplified sequence. […] Cell membranes were prepared from HEK293-cells transiently transfected with the expression vector and grown in 20 liter fermenters with the following protocol.
50 g of cells are resuspended in 30 ml freshly prepared ice cold Lysis buffer (50 mM HEPES, 1 mM EDTA, 10 mM magnesium dichloride adjusted to pH=7.4+ complete cocktail of protease inhibitor (Roche Diagnostics)). Homogenized with Polytron for 1 min and sonicated on ice for 2×2 minutes at 80% intensity (Vibracell sonicator). The preparation is centrifuged 20 min at 500 g at 4° C., the pellet is discarded and the supernatant centrifuged 1 hour at 43,000 g at 4° C. (19,000 rpm). The pellet is resuspended in 12.5 ml Lysis buffer+12.5 ml sucrose 20% and homogenized using a Polytron for 1-2 min. The protein concentration is determined by the Bradford method and aliquots are stored at −80° C. until use. For binding studies 60 mg Yttrium silicate SPA beads (Amersham®) are mixed with an aliquot of membrane in binding buffer (50 mM Tris, 120 mM sodium chloride, 5 mM potassium chloride, 2 mM calcium dichloride, 10 mM magnesium dichloride) for 15 minutes with mixing. 50 μl of bead/membrane mixture is then added to each well of a 96 well plate, followed by 50 μl of 4 nM 3H-Vasopressin (American Radiolabeled Chemicals). For total binding measurement 100 μl of binding buffer are added to the respective wells, for non-specific binding 100 μl of 8.4 mM cold vasopressin and for compound testing 100 μl of a serial dilution of each compound in 2% dimethyl sulfoxide. The plate is incubated 1 h at room temperature, centrifuged 1 min at 1000 g and counted on a Packard Top-Count. Non-specific binding counts are subtracted from each well and data is normalized to the maximum specific binding set at 100%. To calculate an IC50 the curve is fitted using a non-linear regression model (XLfit) and the Ki is calculated using the Cheng-Prussoff equation.

T1 sequence (P37288 whole entry): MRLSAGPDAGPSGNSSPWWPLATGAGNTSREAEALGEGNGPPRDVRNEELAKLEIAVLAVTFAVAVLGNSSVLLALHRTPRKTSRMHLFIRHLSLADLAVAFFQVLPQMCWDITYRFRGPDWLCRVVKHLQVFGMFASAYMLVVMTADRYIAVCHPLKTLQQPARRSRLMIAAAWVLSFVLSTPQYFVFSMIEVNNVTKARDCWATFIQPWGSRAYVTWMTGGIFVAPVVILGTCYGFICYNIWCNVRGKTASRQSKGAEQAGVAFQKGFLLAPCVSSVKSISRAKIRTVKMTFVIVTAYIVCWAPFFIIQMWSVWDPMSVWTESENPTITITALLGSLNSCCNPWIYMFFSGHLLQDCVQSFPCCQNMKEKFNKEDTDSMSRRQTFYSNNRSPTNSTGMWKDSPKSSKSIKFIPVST

SMILES	Ki
Cc1nc(C2=CCC(c3nnc4n3-c3ccc(Cl)cc3CNC4)CC2)cs1 (racemic) [Example 35, (RS)-8-Chloro-1-[4-(2-methyl-thiazol-4-yl)-cyclohex-3-enyl]-5,6-dihydro-4H-2,3,5,10b-tetraaza-benzo[e]azulene]	170 nM
Cc1nc(C2=CCC(c3nnc4n3-c3ccc(Cl)cc3CN(C)C4)CC2)cs1 (racemic) [Example 36, (RS)-8-Chloro-5-methyl-1-[4-(2-methyl-thiazol-4-yl)-cyclohex-3-enyl]-5,6-dihydro-4H-2,3,5,10b-tetraaza-benzo[e]azulene]	13.5 nM
CN1Cc2cc(Cl)ccc2-n2c(nnc2C2CC=C(c3ccccn3)CC2)C1 (single isomer, unassigned; (+)) [Example 24, (+)-8-Chloro-5-methyl-1-(-4-pyridin-2-yl-cyclohex-3-enyl)-5,6-dihydro-4H-2,3,5,10b-tetraaza-benzo[e]azulene]	2.88 nM
CC(C)(C)OC(=O)N1Cc2cc(Cl)ccc2-n2c(nnc2C2CC=C(c3ncccc3F)CC2)C1 (single isomer, unassigned; (+)) [Example 29, (+)-8-Chloro-1-[-4-(3-fluoro-pyridin-2-yl)-cyclohex-3-enyl]-4H,6H-2,3,5,10b-tetraaza-benzo[e]azulene-5-carboxylic acid tert-butyl ester]	0.794 nM
Fc1cccnc1C1=CCC(c2nnc3n2-c2ccc(Cl)cc2CNC3)CC1 (single isomer, unassigned; (+)) [Example 32, (+)-8-Chloro-1-[-4-(3-fluoro-pyridin-2-yl)-cyclohex-3-enyl]-5,6-dihydro-4H-2,3,5,10b-tetraaza-benzo[e]azulene]	38.9 nM
CN1Cc2cc(Cl)ccc2-n2c(nnc2C2CC=C(c3ncccc3F)CC2)C1 (single isomer, unassigned; (+)) [Example 33, (+)-8-Chloro-1-[-4-(3-fluoro-pyridin-2-yl)-cyclohex-3-enyl]-5-methyl-5,6-dihydro-4H-2,3,5,10b-tetraaza-benzo[e]azulene]	5.13 nM
CN1Cc2cc(Cl)ccc2-n2c(nnc2C2CC=C(c3ccccn3)CC2)C1 (single isomer, unassigned; (-)) [Example 23, (−)-8-Chloro-5-methyl-1-(-4-pyridin-2-yl-cyclohex-3-enyl)-5,6-dihydro-4H-2,3,5,10b-tetraaza-benzo[e]azulene]	7.59 nM
CC(C)(C)OC(=O)N1Cc2cc(Cl)ccc2-n2c(nnc2C2CC=C(c3ncccc3F)CC2)C1 (single isomer, unassigned; (-)) [Example 28, (−)-8-Chloro-1-[-4-(3-fluoro-pyridin-2-yl)-cyclohex-3-enyl]-4H,6H-2,3,5,10b-tetraaza-benzo[e]azulene-5-carboxylic acid tert-butyl ester]	1.91 nM
Fc1cccnc1C1=CCC(c2nnc3n2-c2ccc(Cl)cc2CNC3)CC1 (single isomer, unassigned; (-)) [Example 30, (−)-8-Chloro-1-[-4-(3-fluoro-pyridin-2-yl)-cyclohex-3-enyl]-5,6-dihydro-4H-2,3,5,10b-tetraaza-benzo[e]azulene]	42.7 nM
CN1Cc2cc(Cl)ccc2-n2c(nnc2C2CC=C(c3ncccc3F)CC2)C1 (single isomer, unassigned; (-)) [Example 31, (−)-8-Chloro-1-[-4-(3-fluoro-pyridin-2-yl)-cyclohex-3-enyl]-5-methyl-5,6-dihydro-4H-2,3,5,10b-tetraaza-benzo[e]azulene]	8.13 nM
